Results as given in patent US5216124A, “Substituted cyclic tetrapeptides” (G. D. Searle & Co., priority 1991, dated 1993).
Where a name gives a salt, the structure may show the parent alone. Positions of bridges follow the written chain, without caps; N, C: chain ends. Non-standard residues stand in square brackets, D forms with d. Residues, ends and D or L forms follow the SMILES beside them. Phe(4-F) = N[C@@H](Cc1ccc(F)cc1)C(=O)O; Dmt = Cc1cc(O)cc(C)c1C[C@H](N)C(=O)O; NMeCha = CN[C@@H](CC1CCCCC1)C(=O)O; NMeF = CN[C@@H](Cc1ccccc1)C(=O)O; 2Thi = N[C@@H](Cc1cccs1)C(=O)O; Cha = N[C@@H](CC1CCCCC1)C(=O)O; dPen = CC(C)(S)[C@@H](N)C(=O)O

Experiments:
CD Charles River mice = assay: Writhing Assay (PBQ-induced writhing); format: in vivo, mouse; settings: for number of mice out of ten in which peptide was active, Intragastric: 10 mg/kg i.g., PBQ i.p. 15 min after dosing; for number of mice out of ten in which peptide was active, Subcutaneous: 10 mg/kg s.c., PBQ i.p. 25 min after dosing
Text: The "Writhing Assay" is one of the most widely-used experimental procedures for measuring the analgesic activity of different narcotic and nonnarcotic analgesic agents, and involves the continuous, chemically-induced pain of visceral origin to an animal, such as a mouse or rat. [Gyires et al., Arch. int. Pharmacodyn, 267, 131-140 (1984); C. Vander Wende et al., Fed. Proc., 15, 494 (1956); Koster et al., Fed. Proc., 18, 412 (1959); and Witken et al., J. Pharmacol. Exp. Ther., 133, 400-408 (1961). ] Chemicals which may be used to induce this pain include phenylbenzoquinone (PBQ) and acetic acid. As a result of the chemical irritation to the animal, a characteristic stretching and writhing of the animal (dorsiflexion of the animal's back, extension of its hindlimbs an the strong contraction of its abdominal musculature) will generally occur. […] Drugs which reduce the number of writhes of the animal appear to restore the normal nociceptive threshold of the animal.
This assay was conducted generally in the manner described by R. I. Taber, "Predictive Value of Analgesic Assays in Mice and Rats,"Advances in Biochemical Psychopharmacology, 8, 191 (1974). The Methyl Ester Tetrapeptide and Test Tetrapeptides Nos. 1, 3, 4, 5, 6, 7, 8 and 9 were tested in this assay.
Two hundred CD Charles River mice, weighing 20 to 30 grams were used in this assay.
Twenty-five minutes after subcutaneous administration, and fifteen minutes after intragastric administration, to the mice of 10 mg per kilogram of body weight of either a Test Tetrapeptide or the Methyl Ester Tetrapeptide, […] of body weight of a 0.025% w/v solution of PBQ was injected intraperitoneally into each mouse. Some mice were given saline in place of a Test Tetrapeptide or the Methyl Ester Tetrapeptide, and were used as a control group.
Five minutes later, each mouse was individually placed into a glass beaker for observation, and the number of writhes occurring during the following ten-minute period was counted.
A tetrapeptide compound was considered to be "active" (to have produced analgesia in a mouse) if, in accordance with the conditions set forth above, and under the test criteria employed for this assay, after the administration of 10 mg per kilogram of body weight of the tetrapeptide to the mouse, the number of writhes elicited by a mouse injected with PBQ was equal to, or less than, one-half the median number of writhes recorded for the saline-treated control group of mice that day, as described by R. I. Taber, supra.
The standard initial screening dose of a compound employed in this assay was 10 mg per kilogram (mpk) of body weight for both routes of administration. If this initial screening dose of the tetrapeptide produced analgesia in seven of ten mice, then the effect of additional doses of the tetrapeptide on the writhing response was evaluated, and then the ED50 value (that dose of a Test Tetrapeptide or the Methyl Ester Tetrapeptide which produced analgesia in 50% of the mice to which the tetrapeptide was administered) was generally calculated. A maximum likelihood function was used to determine the ED50 value. (The slopes of the dose-response curves for all tetrapeptides analyzed were compared as described by Tallarida and Murray, Manual of Pharmacologic Calculations, Page 11 (Springer Verlag, N.Y., 1981)).

δ opioid receptors = δ opioid receptors (Rattus norvegicus, UniProt P33533); assay: Opiate Binding Assay, displacement of 3[H]-DSLET; settings: ratio of mean IC50 μ to δ, above 1.0 = more specific for δ
Sequence of δ opioid receptors (P33533 whole entry): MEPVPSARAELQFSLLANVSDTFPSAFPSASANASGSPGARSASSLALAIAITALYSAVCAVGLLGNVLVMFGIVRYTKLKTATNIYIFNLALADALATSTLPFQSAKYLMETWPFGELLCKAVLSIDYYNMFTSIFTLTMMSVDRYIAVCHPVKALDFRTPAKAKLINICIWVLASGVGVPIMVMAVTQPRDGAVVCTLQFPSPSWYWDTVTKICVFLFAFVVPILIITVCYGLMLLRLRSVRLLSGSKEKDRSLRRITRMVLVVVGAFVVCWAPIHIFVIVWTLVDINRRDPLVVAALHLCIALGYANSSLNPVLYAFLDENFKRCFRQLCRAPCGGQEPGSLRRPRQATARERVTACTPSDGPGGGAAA

Row | SMILES | number of mice out of ten in which peptide was active, Subcutaneous (CD Charles River mice) | Mean IC50 Value μ/δ Ratio (δ opioid receptors; monohydrochloride) | number of mice out of ten in which peptide was active, Intragastric (CD Charles River mice) | Mean IC50 Value μ/δ Ratio (δ opioid receptors) | other results
1 | COC(=O)[C@@H]1NC(=O)[C@H](Cc2ccccc2)NC(=O)C(NC(=O)[C@@H](N)Cc2c(C)cc(O)cc2C)CCSSC1(C)C (single isomer, unassigned) [Example 73, 2,6-dimethyl-L-tyrosylhomocysteinyl-L-phenylalanyl-3-mercapto-D-valine, cyclic (2→4)-disulfide, methyl ester, monohydrochloride] | 6/10 | 0.10 | – | – | number of mice out of ten in which peptide was active, Intragastric (CD Charles River mice; listed as Test Tetrapeptide No. 5, monohydrochloride, 10 mg/kg): 5/10
2 | COC(=O)[C@@H]1NC(=O)[C@H](Cc2ccccc2)NC(=O)C(NC(=O)[C@@H](N)Cc2c(C)cc(O)cc2C)CCSSC1(C)C (single isomer, unassigned) [Example 72, 2,6-dimethyl-L-tyrosylhomocysteinyl-L-phenylalanyl-3-mercapto-D-valine, cyclic (2→4)-disulfide, methyl ester, monohydrochloride] | 6/10 | 0.4 | – | – | number of mice out of ten in which peptide was active, Intragastric (CD Charles River mice; listed as Test Tetrapeptide No. 4, monohydrochloride, 10 mg/kg): 1/10
3 | COC(=O)[C@@H]1NC(=O)[C@H](Cc2ccccc2)N(C)C(=O)[C@H](NC(=O)[C@@H](N)Cc2c(C)cc(O)cc2C)CSSC1(C)C [Example 39, 2,6-dimethyl-L-tyrosyl-D-cysteinyl-N-methyl-L-phenylalanyl-3-mercapto-D-valine, cyclic (2→4)-disulfide, methyl ester, monohydrochloride] (H-[Dmt][dC][NMeF][dPen]-OMe; disulfide 2-4) | 4/10 | – | 5/10 | 6.0 | –
4 | Cc1ccc(CC(N)C(=O)N[C@@H]2CSSC(C)(C)[C@H](C(=O)O)NC(=O)[C@H](Cc3ccccc3)NC2=O)c(C)c1O (single isomer, unassigned) [Example 81 (Diastereomer A), 3-hydroxy-2,4-dimethylphenylalanyl-D-cysteinyl-L-phenylalanyl-3-mercapto-D-valine, cyclic (2→4)-disulfide, monohydrochloride] | – | 0.1 | – | – | –
5 | COC(=O)[C@@H]1NC(=O)[C@H](Cc2ccc(F)cc2)NC(=O)[C@H](NC(=O)[C@@H](N)Cc2c(C)cc(O)cc2C)CSSC1(C)C [Example 67, 2,6-dimethyl-L-tyrosyl-D-cysteinyl-4-fluoro-L-phenylalanyl-3-mercapto-D-valine, cyclic (2→4)-disulfide, methyl ester, monohydrochloride] (H-[Dmt][dC][Phe(4-F)][dPen]-OMe; disulfide 2-4) | 2/10 | – | 1/10 | 2.4 | –
6 | COC(=O)[C@@H]1NC(=O)[C@H](CC2CCCCC2)N(C)C(=O)[C@H](NC(=O)[C@@H](N)Cc2c(C)cc(O)cc2C)CSSC1(C)C [Example 53, 2,6-dimethyl-L-tyrosyl-D-cysteinyl-3-cyclohexyl-N-methyl-L-alanyl-3-mercapto-D-valine, cyclic (2→4)-disulfide, methyl ester, monohydrochloride] (H-[Dmt][dC][NMeCha][dPen]-OMe; disulfide 2-4) | 3/10 | – | 3/10 | 12 | –
7 | Cc1cc(O)c(C)c(C)c1CC(N)C(=O)N[C@@H]1CSSC(C)(C)[C@H](C(=O)O)NC(=O)[C@H](Cc2ccccc2)NC1=O (single isomer, unassigned) [Example 82 (Diastereomer B), 2,3,6-trimethyltyrosyl-D-cysteinyl-L-phenylalanyl-3-mercapto-D-valine, cyclic (2→4)-disulfide, monohydrochloride] | – | – | – | 81 | –
8 | Cc1cc(O)ccc1CC(N)C(=O)N[C@@H]1CSSC(C)(C)[C@H](C(=O)O)NC(=O)[C@H](Cc2ccccc2)NC1=O (single isomer, unassigned) [Example 5 (Diastereomer B)] | – | – | – | 15 | –
9 | COC(=O)[C@@H]1NC(=O)[C@H](Cc2cccs2)NC(=O)[C@H](NC(=O)[C@@H](N)Cc2c(C)cc(O)cc2C)CSSC1(C)C [Example 60, 2,6-dimethyl-L-tyrosyl-D-cysteinyl-3-(2-thienyl)-L-alanyl-3-mercapto-D-valine, cyclic (2→4)-disulfide, methyl ester, monohydrochloride] (H-[Dmt][dC][2Thi][dPen]-OMe; disulfide 2-4) | – | – | – | 1.4 | –
10 | Cc1ccc(CC(N)C(=O)N[C@@H]2CSSC(C)(C)[C@H](C(=O)O)NC(=O)[C@H](Cc3ccccc3)NC2=O)c(C)c1O (single isomer, unassigned) [Example 81 (Diastereomer B), 3-hydroxy-2,4-dimethylphenylalanyl-D-cysteinyl-L-phenylalanyl-3-mercapto-D-valine, cyclic (2→4)-disulfide, monohydrochloride] | – | 19 | – | – | –
11 | COC(=O)[C@@H]1NC(=O)[C@H](CC2CCCCC2)NC(=O)[C@H](NC(=O)[C@@H](N)Cc2c(C)cc(O)cc2C)CSSC1(C)C [Example 46, 2,6-dimethyl-L-tyrosyl-D-cysteinyl-3-cyclohexyl-L-alanyl-3-mercapto-D-valine, cyclic (2→4)-disulfide, methyl ester, monohydrochloride] (H-[Dmt][dC][Cha][dPen]-OMe; disulfide 2-4) | 5/10 | – | 4/10 | 0.6 | –
12 | Cc1cc(O)ccc1CC(N)C(=O)N[C@@H]1CSSC(C)(C)[C@H](C(=O)O)NC(=O)[C@H](Cc2ccccc2)NC1=O (single isomer, unassigned) [Example 5 (Diastereomer A)] | – | – | – | 48 | –
